Experimental data as given in US10336775B2 (Asceneuron SA, priority 2014, dated 2019).

Each compound was assayed against His-Tagged hOGA (human O-GlcNAcase) (Homo sapiens (Human), UniProt O60502) (assay: Human O-GlcNAcase enzyme inhibition assay (Example B01)). Settings: OGA IC50 (M), OGA enzyme inhibition assay; activity range classes defined in μM.
Sequence of His-Tagged hOGA (human O-GlcNAcase) (O60502 whole entry): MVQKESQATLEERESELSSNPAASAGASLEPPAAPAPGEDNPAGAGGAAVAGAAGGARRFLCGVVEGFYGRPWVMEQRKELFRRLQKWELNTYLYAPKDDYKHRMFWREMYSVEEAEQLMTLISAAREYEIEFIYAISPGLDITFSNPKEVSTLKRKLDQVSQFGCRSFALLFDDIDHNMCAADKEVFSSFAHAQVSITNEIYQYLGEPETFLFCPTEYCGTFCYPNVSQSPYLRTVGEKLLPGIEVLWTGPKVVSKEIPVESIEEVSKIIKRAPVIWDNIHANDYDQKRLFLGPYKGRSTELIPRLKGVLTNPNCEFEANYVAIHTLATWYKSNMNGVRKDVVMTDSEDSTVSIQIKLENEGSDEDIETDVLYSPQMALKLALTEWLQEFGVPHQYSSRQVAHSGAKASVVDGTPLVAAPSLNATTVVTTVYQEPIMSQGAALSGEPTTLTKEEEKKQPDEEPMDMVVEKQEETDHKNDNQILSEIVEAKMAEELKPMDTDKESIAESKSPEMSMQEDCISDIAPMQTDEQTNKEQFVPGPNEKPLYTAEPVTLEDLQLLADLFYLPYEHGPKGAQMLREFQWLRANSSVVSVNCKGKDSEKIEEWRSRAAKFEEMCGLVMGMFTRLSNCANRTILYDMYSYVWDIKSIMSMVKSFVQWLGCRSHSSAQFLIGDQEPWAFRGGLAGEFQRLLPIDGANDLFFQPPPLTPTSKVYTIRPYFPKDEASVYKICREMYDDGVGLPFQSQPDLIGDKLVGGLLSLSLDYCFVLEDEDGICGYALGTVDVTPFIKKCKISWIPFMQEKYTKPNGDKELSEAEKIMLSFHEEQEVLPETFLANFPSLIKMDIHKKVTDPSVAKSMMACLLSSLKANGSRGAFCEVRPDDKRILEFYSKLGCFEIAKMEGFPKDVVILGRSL
Type: biochemical
`CC(=O)Nc1cnc(N2CCN(C(C)c3ccc4cccnc4c3)CC2)nc1` (racemic) [Example 120, N-(2-(4-(1-(quinolin-7-yl)ethyl)piperazin-1-yl)pyrimidin-5-yl)acetamide] was tested, and the IC50 was 5e-08 to 2e-07 M.

Same assay, conditions: OGA enzyme inhibition assay; activity range classes defined in μM; read-out: OGA IC50
In the case of `C[C@@H](c1ccc2c(c1)OCO2)N1CCN(c2ncc(Br)cn2)CC1` [Example 175, (S)-2-(4-(1-(benzo[d][1,3]dioxol-5-yl)ethyl)piperazin-1-yl)-5-bromopyrimidine], the IC50 is reported as less than 5e-08 M. `CC(C)c1csc(N2CCN(C(C)c3ccc4c(c3)OCO4)CC2)n1` (racemic) [Example 12, 2-(4-(1-(Benzo[d][1,3]dioxol-5-yl)ethyl)piperazin-1-yl)-4-isopropylthiazole] was tested, and the IC50 was 2e-07 to 1e-06 M. With `COc1nc(N2CCN(C(C)c3ccc4c(c3)OCCO4)CC2)ccc1Br` (racemic) [Example 199] the IC50 was 5e-08 to 2e-07 M. Work on `CC(c1ccc2c(c1)OCO2)N1CCN(c2nc(C(C)(C)C)cs2)CC1` (racemic) [Example 16, 2-(4-(1-(benzo[d][1,3]dioxol-5-yl)ethyl)piperazin-1-yl)-4-(tert-butyl)thiazole] yielded an IC50 of 1e-06 to 1e-05 M. `C[C@@H](c1ccc2c(c1)OCO2)N1CCN(c2ncc(C(=O)N(C)C)cn2)CC1` [Example 137, (S)-2-(4-(1-(benzo[d][1,3]dioxol-5-yl)ethyl)piperazin-1-yl)-N,N-dimethylpyrimidine-5-carboxamide] was tested, and the IC50 was less than 5e-08 M. In the case of `C[C@@H](c1ccc2c(c1)OCO2)N1CCN(c2ncc(C3(O)CCOCC3)cn2)CC1` [Example 188, (S)-4-(2-(4-(1-(benzo[d][1,3]dioxol-5-yl)ethyl)piperazin-1-yl)pyrimidin-5-yl)tetrahydro-2H-pyran-4-ol], the IC50 is reported as less than 5e-08 M. With `CC(=O)Nc1ncc(N2CCN(C(C)c3ccc4c(c3)OCO4)CC2)s1` (racemic) [Example 86, N-(5-(4-(1-(benzo[d][1,3]dioxol-5-yl)ethyl)piperazin-1-yl)thiazol-2-yl)acetamide] the IC50 was less than 5e-08 M. Compound `CC(=O)Nc1nnc(N2CCN(C(C)c3ccc4c(c3)OC(F)(F)O4)CC2)s1` (racemic) [Example 117] has an IC50 of 2e-07 to 1e-06 M. `CC(C)NC(=O)c1csc(N2CCN(C(C)c3ccc4c(c3)OCO4)CC2)n1` (racemic) [Example 32, 2-(4-(1-(Benzo[d][1,3]dioxol-5-yl)ethyl)piperazin-1-yl)-N-isopropylthiazole-4-carboxamide] was tested, and the IC50 was 2e-07 to 1e-06 M. For `CC(c1ccc2c(c1)OCO2)N1CCN(c2nnc(NC(=O)c3ccc(Cl)cc3)s2)CC1` (racemic) [Example 110, N-(5-(4-(1-(benzo[d][1,3]dioxol-5-yl)ethyl)piperazin-1-yl)-1,3,4-thiadiazol-2-yl)-4-chlorobenzamide], the IC50 was 5e-08 to 2e-07 M. “(2-(4-(1-(benzo[d][1,3]dioxol-5-yl)ethyl)piperazin-1-yl)thiazol-4-yl)methanamine [Example 84]” gave an IC50 of 5e-08 to 2e-07 M. Compound `CC(=O)Nc1nnc(N2CCN(C(C)c3ccc4c(c3)OCC4)CC2)s1` (racemic) [Example 128, N-(5-(4-(1-(2,3-dihydrobenzofuran-6-yl)ethyl)piperazin-1-yl)-1,3,4-thiadiazol-2-yl)acetamide] has an IC50 of less than 5e-08 M. `CC(=O)Nc1cnc(N2CCN(C(C)c3ccc4scnc4c3)CC2)nc1` (racemic) [Example 116, N-(2-(4-(1-(benzo[d]thiazol-5-yl)ethyl)piperazin-1-yl)pyrimidin-5-yl)acetamide] gave an IC50 of less than 5e-08 M. `CCCNc1ccnc(N2CCN(C(C)c3ccc4c(c3)OCO4)CC2)n1` (racemic) [Example 45, 2-(4-(1-(Benzo[d][1,3]dioxol-5-yl)ethyl)piperazin-1-yl)-N-propylpyrimidin-4-amine] gave an IC50 of 2e-07 to 1e-06 M.

Same assay, conditions: measured according to Example B01
`C[C@@H](c1ccc2c(c1)OCO2)N1CCN(c2ncc(C(=O)N(C)C)cn2)CC1` [Example 137, (S)-2-(4-(1-(benzo[d][1,3]dioxol-5-yl)ethyl)piperazin-1-yl)-N,N-dimethylpyrimidine-5-carboxamide] was tested, and the “OGA inhibitor activity (in words)” value was “very potent OGA inhibitors”. In the case of `CC(c1ccc2c(c1)OCCO2)N1CCN(c2ncc(C(=O)N3CCN(C)CC3)s2)CC1` (single isomer, unassigned) [Example 75], the “OGA inhibitor activity (in words)” value is reported as “very potent OGA inhibitors”. For `CC(=O)Nc1nnc(N2CCN(C(C)c3ccc4c(c3)OCC4)CC2)s1` (racemic) [Example 128, N-(5-(4-(1-(2,3-dihydrobenzofuran-6-yl)ethyl)piperazin-1-yl)-1,3,4-thiadiazol-2-yl)acetamide], the “OGA inhibitor activity (in words)” value was “very potent OGA inhibitors”. With `CC(=O)Nc1cnc(N2CCN(C(C)c3ccc4scnc4c3)CC2)nc1` (racemic) [Example 116, N-(2-(4-(1-(benzo[d]thiazol-5-yl)ethyl)piperazin-1-yl)pyrimidin-5-yl)acetamide] the “OGA inhibitor activity (in words)” value was “very potent OGA inhibitors”.
